Laboratory results published in US20060069132A1, “Azolecarboxamide herbicides” (priority 2004, published 2006).
Where two headings read alike, the source gives them in different places.

Key:
[1] = tested on: wheat; experiment: Test B postemergence herbicide test; assay type: in vivo, Triticum aestivum; conditions: Triticum aestivum, post-emergence, 336 h, postemergence, read-out: Wheat plant response rating
Method in brief: (§1)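 After treating 2-leaf paddy plants or 2–18 cm postemergence plants (1 to 4 leaves) with formulated chemical, researchers kept them in a greenhouse for 13–15 days. Effects were judged visually versus controls: 0 indicates none, 100 total control.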

[2] = tested on: giant foxtail; experiment: Test B pre-/postemergence herbicide test; assay type: in vivo, Setaria faberi; conditions: Setaria faberi, 336 h; for pest or weed control at 125 g/ha: 125 g ai/ha; for pest or weed control at 500 g/ha: 500 g ai/ha
Method in brief: (§2)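 Pre: seeds sown, then sprayed. Post: 1–4-leaf plants (2–18 cm) sprayed at the same time. Paddy: flooded, treated at 2-leaf stage. Formulation: non-phytotoxic solvent with surfactant. Greenhouse 13–15 days; visual 0–100 score relative to controls.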

[3] = tested on: large crabgrass; experiment: Test B pre-/postemergence herbicide test; assay type: in vivo, Digitaria sanguinalis; conditions: Digitaria sanguinalis; for pest or weed control at 125 g/ha: 125 g ai/ha; for pest or weed control at 500 g/ha: 500 g ai/ha
Method in brief: as §2

[4] = tested on: corn; experiment: Test B pre-/postemergence herbicide test; assay type: in vivo, Zea mays; conditions: Zea mays
Method in brief: as §2

[5] = tested on: velvetleaf; experiment: Test B pre-/postemergence herbicide test; assay type: in vivo, Abutilon theophrasti; conditions: Abutilon theophrasti, 336 h; for pest or weed control at 125 g/ha: 125 g ai/ha; for pest or weed control at 500 g/ha: 500 g ai/ha
Method in brief: as §2

[6] = tested on: small flower umbrella sedge; experiment: Test B flooded paddy test; assay type: in vivo, Cyperus difformis; conditions: Cyperus difformis, 336 h, 1000 g ai/ha, scale 0 to 100 (0 no effect, 100 complete control), read-out: Sedge, Umbrella plant response rating
Method in brief: (§3)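 Formulated test chemicals went onto postemergence plants measuring 2 to 18 cm, at one to four leaves. For the paddy assay, species had reached two leaves. Scoring took place 13–15 days later by eye, relative to untreated plants, using 0 for no effect up to 100 for full control.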

[7] = tested on: barnyardgrass; experiment: Test B pre-/postemergence herbicide test; assay type: in vivo, Echinochloa crus-galli; conditions: Echinochloa crus-galli; for pest or weed control at 125 g/ha: 125 g ai/ha; for pest or weed control at 500 g/ha: 500 g ai/ha
Method in brief: (§4)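 Plants compared with untreated controls 13–15 days post-treatment and given a visual 0–100 injury score. Applications: preemergence to seeds; postemergence at 1- to 4-leaf (2–18 cm); paddy species flooded, 2-leaf stage. Vehicle non-phytotoxic, surfactant included.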

[8] = tested on: rice; experiment: Test B flooded paddy test; assay type: in vivo, Oryza sativa; conditions: Oryza sativa, 336 h, 1000 g ai/ha, scale 0 to 100 (0 no effect, 100 complete control), read-out: Rice plant response rating
Method in brief: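 Plants grow to 1- to 4-leaf stage (2–18 cm) for postemergence spraying, or to 2-leaf stage for the paddy test. Formulated compound is applied. Greenhouse holding lasts 13–15 days. Response is scored visually relative to controls, 0 no effect to 100 complete control; a dash means no result.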

[9] = tested on: morningglory; experiment: Test B pre-/postemergence herbicide test; assay type: in vivo, Ipomoea coccinea; conditions: Ipomoea, 336 h; for pest or weed control at 125 g/ha: 125 g ai/ha; for pest or weed control at 500 g/ha: 500 g ai/ha
Method in brief: as §4

[10] = tested on: pigweed; experiment: Test B pre-/postemergence herbicide test; assay type: in vivo, Amaranthus retroflexus; conditions: Amaranthus retroflexus, 336 h; for pest or weed control at 125 g/ha: 125 g ai/ha
Method in brief: as §2

[11] = tested on: cocklebur; experiment: Test B pre-/postemergence herbicide test; assay type: in vivo, Xanthium strumarium; conditions: Xanthium strumarium; for pest or weed control at 125 g/ha: 125 g ai/ha; for pest or weed control at 500 g/ha: 500 g ai/ha
Method in brief: as §4

[12] = tested on: Surinam grass; experiment: Test B pre-/postemergence herbicide test; assay type: in vivo, Urochloa decumbens; conditions: Urochloa decumbens; for pest or weed control at 125 g/ha: 125 g ai/ha; for pest or weed control at 500 g/ha: 500 g ai/ha
Method in brief: as §2

[13] = tested on: ducksalad; experiment: Test B flooded paddy test; assay type: in vivo, Heteranthera limosa; conditions: Heteranthera limosa, 336 h, 1000 g ai/ha, scale 0 to 100 (0 no effect, 100 complete control), read-out: Ducksalad plant response rating
Method in brief: as §3

[14] = tested on: blackgrass; experiment: Test B postemergence herbicide test; assay type: in vivo, Alopecurus myosuroides; conditions: Alopecurus myosuroides, post-emergence, 336 h, postemergence, visual rating, scale 0 (no effect) to 100 (complete control), read-out: Blackgrass plant response rating
Method in brief: as §3

[15] = tested on: wild oat; experiment: Test B postemergence herbicide test; assay type: in vivo, Avena fatua; conditions: Avena fatua, post-emergence, 336 h, postemergence, read-out: Oat, Wild plant response rating
Method in brief: as §1

[16] = 125 g ai/ha, visual rating, scale 0 (no effect) to 100 (complete control)
[17] = 500 g ai/ha, scale 0 to 100, 0 is no effect, 100 is complete control
[18] = post-emergence, postemergence, visual rating, scale 0 (no effect) to 100 (complete control), read-out: Barnyardgrass plant response rating
[19] = post-emergence, postemergence, visual rating, scale 0 (no effect) to 100 (complete control), read-out: Cocklebur plant response rating

SMILES: CCN(CC)C(=O)c1cncc(NC(=O)c2cc(C(C)(C)C)nn2CC)c1 [Compound 261, 5-[[[3-(1,1-dimethylethyl)-1-ethyl-1H-pyrazol-5-yl]carbonyl]amino]-N,N-diethyl-3-pyridinecarboxamide]
- plant injury at 125 g/ha [1, 16]: 0%
- plant injury at 500 g/ha [1, 17]: 20%
- pest or weed control at 125 g/ha ([2]; post-emergence, postemergence, visual rating, scale 0 (no effect) to 100 (complete control), read-out: Foxtail, Giant plant response rating): 0%
- pest or weed control at 500 g/ha ([2]; post-emergence, postemergence, scale 0 to 100, 0 is no effect, 100 is complete control, read-out: Foxtail, Giant plant response rating): 0%
- pest or weed control at 125 g/ha ([2]; pre-emergence, 0 = no effect, 100 = complete control, read-out: Foxtail, Giant plant response rating (0 to 100 scale)): 0%
- pest or weed control at 500 g/ha ([2]; pre-emergence, visual rating, 0 = no effect, 100 = complete control, read-out: Plant response rating, Foxtail, Giant): 0%
- pest or weed control at 125 g/ha ([3]; post-emergence, postemergence, visual rating, scale 0 (no effect) to 100 (complete control), read-out: Crabgrass, Large plant response rating): 0%
- pest or weed control at 500 g/ha ([3]; post-emergence, postemergence, scale 0 to 100, 0 is no effect, 100 is complete control, read-out: Crabgrass, Large plant response rating): 10%
- pest or weed control at 125 g/ha ([3]; pre-emergence, 0 = no effect, 100 = complete control, read-out: Crabgrass, Large plant response rating (0 to 100 scale)): 50%
- pest or weed control at 500 g/ha ([3]; pre-emergence, visual rating, 0 = no effect, 100 = complete control, read-out: Plant response rating, Crabgrass, Large): 50%
- plant injury at 125 g/ha ([4]; post-emergence, postemergence, 125 g ai/ha, visual rating, scale 0 (no effect) to 100 (complete control), read-out: Corn plant response rating): 10%
- plant injury at 500 g/ha ([4]; post-emergence, postemergence, 500 g ai/ha, scale 0 to 100, 0 is no effect, 100 is complete control, read-out: Corn plant response rating): 20%
- Corn plant response rating (crop injury, 0 = no effect, 100 = complete kill) at 500 g/ha ([4]; pre-emergence, 500 g ai/ha, visual rating, 0 = no effect, 100 = complete control): 0%
- pest or weed control at 125 g/ha ([5]; post-emergence, postemergence, visual rating, scale 0 (no effect) to 100 (complete control), read-out: Velvetleaf plant response rating): 0%
- pest or weed control at 500 g/ha ([5]; post-emergence, postemergence, scale 0 to 100, 0 is no effect, 100 is complete control, read-out: Velvetleaf plant response rating): 0%
- pest or weed control at 125 g/ha ([5]; pre-emergence, 0 = no effect, 100 = complete control, read-out: Velvetleaf plant response rating (0 to 100 scale)): 0%
- pest or weed control at 500 g/ha ([5]; pre-emergence, visual rating, 0 = no effect, 100 = complete control, read-out: Plant response rating, Velvetleaf): 20%
- pest or weed control at 1000 g/ha [6]: 30%
- pest or weed control at 125 g/ha [7, 18]: 0%
- pest or weed control at 500 g/ha [7, 18]: 0%
- pest or weed control at 125 g/ha ([7]; pre-emergence, 0 = no effect, 100 = complete control, read-out: Barnyardgrass plant response rating (0 to 100 scale)): 0%
- pest or weed control at 500 g/ha ([7]; pre-emergence, visual rating, 0 = no effect, 100 = complete control, read-out: Plant response rating, Barnyardgrass): 20%
- plant injury at 1000 g/ha [8]: 60%
- pest or weed control at 125 g/ha ([9]; post-emergence, postemergence, visual rating, scale 0 (no effect) to 100 (complete control), read-out: Morningglory plant response rating): 0%
- pest or weed control at 500 g/ha ([9]; post-emergence, postemergence, scale 0 to 100, 0 is no effect, 100 is complete control, read-out: Morningglory plant response rating): 0%
- pest or weed control at 125 g/ha ([9]; pre-emergence, 0 = no effect, 100 = complete control, read-out: Morningglory plant response rating (0 to 100 scale)): 0%
- pest or weed control at 500 g/ha ([9]; pre-emergence, visual rating, 0 = no effect, 100 = complete control, read-out: Plant response rating, Morningglory): 0%
- pest or weed control at 125 g/ha ([10]; post-emergence, postemergence, visual rating, scale 0 (no effect) to 100 (complete control), read-out: Pigweed plant response rating): 20%
- pest or weed control at 500 g/ha ([10]; post-emergence, postemergence, 500 g ai/ha, scale 0 to 100, 0 is no effect, 100 is complete control, read-out: Pigweed plant response rating): 70%
- pest or weed control at 125 g/ha ([10]; pre-emergence, 0 = no effect, 100 = complete control, read-out: Pigweed plant response rating (0 to 100 scale)): 0%
- pest or weed control at 125 g/ha [11, 19]: 0%
- pest or weed control at 500 g/ha [11, 19]: 10%
- pest or weed control at 125 g/ha ([11]; pre-emergence, 0 = no effect, 100 = complete control, read-out: Cocklebur plant response rating (0 to 100 scale)): 0%
- pest or weed control at 500 g/ha ([11]; pre-emergence, visual rating, 0 = no effect, 100 = complete control, read-out: Plant response rating, Cocklebur): 0%
- pest or weed control at 125 g/ha ([12]; post-emergence, postemergence, visual rating, scale 0 (no effect) to 100 (complete control), read-out: Surinam Grass plant response rating): 0%
- pest or weed control at 500 g/ha ([12]; post-emergence, postemergence, scale 0 to 100, 0 is no effect, 100 is complete control, read-out: Surinam Grass plant response rating): 20%
- pest or weed control at 125 g/ha ([12]; pre-emergence, 0 = no effect, 100 = complete control, read-out: Surinam Grass plant response rating (0 to 100 scale)): 0%
- pest or weed control at 500 g/ha ([12]; pre-emergence, visual rating, 0 = no effect, 100 = complete control, read-out: Plant response rating, Surinam Grass): 0%
- pest or weed control at 1000 g/ha [13]: 80%
- pest or weed control at 125 g/ha ([14]; 125 g ai/ha): 0%
- pest or weed control at 500 g/ha ([14]; 500 g ai/ha): 20%
- pest or weed control at 125 g/ha [15, 16]: 0%
- pest or weed control at 500 g/ha [15, 17]: 20%
